For orientation: Emax means the maximal effect, on the per cent scale that the assay sets.

The source of these data is US8993591B2, “1,2,4-triazolo[4,3-a] pyridine derivatives and their use as positive allosteric modulators of MGLUR2 receptors” (Janssen Pharmaceuticals, Inc., priority 2010, dated 2015).

This test has as its target T1, human mGluR2 receptor (Homo sapiens, UniProt Q14416).
T1 construct: expressed in transfected cells; host or cells: CHO cells (membranes)
Kind of test: [35S]GTPγS binding assay, mGluR2 positive allosteric modulation (PAM). In kind it is biochemical. Conditions: membranes from CHO cells transfected with human mGluR2, in presence of glutamate at EC20; for EC50: -log EC50 with EC50 in M, read-out: GTPγS - hmGluR2 PAM pEC50 (converted); for Emax: read-out: GTPγS - hmGluR2 PAM Emax. As for the experimental part:
The [^35S]GTPγS binding assay is a functional membrane-based assay used to study G-protein coupled receptor (GPCR) function whereby incorporation of a non-hydrolysable form of GTP, [^35S]GTPγS (guanosine 5′-triphosphate, labelled with […] ^35S), is measured. The G-protein α subunit catalyzes the exchange of guanosine 5′-diphosphate (GDP) by guanosine triphosphate (GTP) and on activation of the GPCR by an agonist, [^35S]GTPγS, becomes incorporated and cannot be cleaved to continue the exchange cycle (Harper (1998) Current Protocols in Pharmacology 2.6.1-10, John Wiley & Sons, Inc.). […] Here we describe the use of the [^35S]GTPγS binding assay using membranes from cells transfected with the human mGluR2 receptor and adapted from Schaffhauser et al. ((2003) Molecular Pharmacology 4:798-810) for the detection of the positive allosteric modulation (PAM) properties of the compounds of this invention.
CHO-cells were cultured to pre-confluence and stimulated with 5 mM butyrate for 24 h. Cells were then collected by scraping in PBS and cell suspension was centrifuged (10 min at 4000 RPM in benchtop centrifuge). Supernatant was discarded and pellet gently resuspended in 50 mM Tris-HCl, pH 7.4 by mixing with a vortex and pipetting up and down. The suspension was centrifuged at 16,000 RPM (Sorvall RC-5C plus rotor SS-34) for 10 minutes and the supernatant discarded. The pellet was homogenized in 5 mM Tris-HCl, pH 7.4 using an ultra-turrax homogenizer and centrifuged again (18,000 RPM, 20 min, 4° C.). The final pellet was resuspended in 50 mM Tris-HCl, pH 7.4 and stored at −80° C. in appropriate aliquots before use. Protein concentration was determined by the Bradford method (Bio-Rad, USA) with bovine serum albumin as standard.
Measurement of mGluR2 positive allosteric modulatory activity of test compounds was performed as follows. Test compounds and glutamate were diluted in assay buffer containing 10 mM HEPES acid, 10 mM HEPES salt, pH 7.4, 100 mM NaCl, 3 mM MgCl2 and 10 μM GDP. Human mGlu2 receptor-containing membranes were thawed on ice and diluted in assay buffer supplemented with 14 μg/ml saponin. Membranes were pre-incubated with compound alone or together with a predefined (˜EC20) concentration of glutamate (PAM assay) for 30 min at 30° C. After addition of [^35S]GTPγS (f.c. 0.1 nM), assay mixtures were shaken briefly and further incubated to allow [^35S]GTPγS incorporation on activation (30 minutes, 30° C.). Final assay mixtures contained 7 μg of membrane protein in 10 mM HEPES acid, 10 mM HEPES salt, pH 7.4, 100 mM NaCl, 3 mM MgCl2, 10 μM GDP and 10 μg/ml saponin. Total reaction volume was 200 μl. Reactions were terminated by rapid filtration through Unifilter-96 GF/B plates (Perkin Elmer, Mass., USA) using a 96-well filtermate universal harvester. Filters were washed 6 times with ice-cold 10 mM NaH2PO4/10 mM Na2HPO4, pH 7.4. Filters were then air-dried, and 40 μl of liquid scintillation cocktail (Microscint-O) was added to each well. Membrane-bound radioactivity was counted in a Microplate Scintillation and Luminescence Counter from Perkin Elmer.
The concentration-response curves of representative compounds of the present invention-obtained in the presence of EC20 of mGluR2 agonist glutamate to determine positive allosteric modulation (PAM)-were generated using the Lexis software interface (developed at J&J).
(GTPγS resists hydrolysis and so accumulates on activated G proteins.)

Setting [1] is: maximal % effect relative to the control glutamate response.

T1 sequence (Q14416 19-872): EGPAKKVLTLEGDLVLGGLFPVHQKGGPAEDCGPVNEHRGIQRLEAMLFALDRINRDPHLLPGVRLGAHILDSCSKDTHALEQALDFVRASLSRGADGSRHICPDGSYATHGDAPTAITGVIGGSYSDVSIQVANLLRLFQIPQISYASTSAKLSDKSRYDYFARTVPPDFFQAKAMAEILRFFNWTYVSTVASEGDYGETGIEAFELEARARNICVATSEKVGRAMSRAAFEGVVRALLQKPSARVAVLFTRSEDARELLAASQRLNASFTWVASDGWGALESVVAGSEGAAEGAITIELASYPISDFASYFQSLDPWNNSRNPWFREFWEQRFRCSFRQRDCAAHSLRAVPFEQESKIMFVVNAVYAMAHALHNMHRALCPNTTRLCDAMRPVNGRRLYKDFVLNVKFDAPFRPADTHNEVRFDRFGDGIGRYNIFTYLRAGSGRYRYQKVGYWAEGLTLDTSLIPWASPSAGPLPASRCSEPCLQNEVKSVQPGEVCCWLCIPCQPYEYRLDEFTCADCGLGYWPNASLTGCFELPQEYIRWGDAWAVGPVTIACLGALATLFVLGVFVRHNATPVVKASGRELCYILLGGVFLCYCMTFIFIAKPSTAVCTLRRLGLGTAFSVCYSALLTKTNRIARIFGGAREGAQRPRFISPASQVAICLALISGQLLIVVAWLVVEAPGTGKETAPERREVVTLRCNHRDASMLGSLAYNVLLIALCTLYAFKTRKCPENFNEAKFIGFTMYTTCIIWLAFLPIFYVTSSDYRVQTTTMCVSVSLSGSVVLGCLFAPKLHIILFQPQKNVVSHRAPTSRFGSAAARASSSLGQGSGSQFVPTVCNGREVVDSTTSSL

Take `Fc1ccc(C2CN(Cc3ccn4c(CC5CC5)nnc4c3C(F)(F)F)CCO2)c(F)c1` (single isomer, unassigned) [Compound 18, 3-(Cyclopropylmethyl)-7-{[(2*S)-2-(2,4-difluorophenyl)morpholin-4-yl]methyl}-8-(trifluoromethyl)[1,2,4]triazolo[4,3-a]pyridine]: the EC50 is 51.3 nM. For the same compound, under setting [1], the “GTPγS - hmGluR2 PAM Emax” value is recorded as 242%.

As to `Cc1nnc2c(C(F)(F)F)c(CN3CCCC(C)(c4ccccc4)C3)ccn12` (single isomer, unassigned) [Compound 10, 3-Methyl-7-[(3-methyl-3-phenyl-1-piperidinyl)methyl]-8-(trifluoromethyl)-1,2,4-triazolo[4,3-a]pyridine (*S)], under setting [1], the Emax amounted to 193%.

As to `Cc1nnc2c(C(F)(F)F)c(CN3CCCC(C)(c4ccccc4)C3)ccn12` (single isomer, unassigned) [Compound 11, 3-Methyl-7-[(3-methyl-3-phenyl-1-piperidinyl)methyl]-8-(trifluoromethyl)-1,2,4-triazolo[4,3-a]pyridine (*R)], the EC50 was 53.7 nM. Also, under setting [1], the Emax came to 268%.
